# According to patent publication US20250011715A1, “METHOD FOR PRODUCING INNER EAR STRIA VASCULARIS MARGINAL CELLS, CHEMICAL AGENT ASSESSMENT METHOD, AND CELL CULTURE FOR ASSESSING CHEMICAL AGENT” (THE KITASATO INSTITUTE, priority 2021, published 2025):
# Columns and labels:
# [1] = system: inner ear stria vascularis marginal cells (cell mass after suspension culture) from human iPS cells; settings: HBSS containing 2 mM EDTA, on ice 15 minutes, 4 kDa FITC-Dextran 2 mg/mL, Day 61, versus EDTA non-treatment; FIG. 18
# Procedure: The inner ear progenitor cells were obtained from human iPS cells by the same method as in Test Example 1, and suspension culture was continued until the 49th day (Day 61) after the start of the suspension culture by the same method as in Test Example 2 using the inner ear progenitor cells.
# For the obtained cells, a barrier function assay was performed. Specifically, the culture after the suspension culture was put into a microtube having a volume of 1.5 mL for each cell, and centrifuged, the culture medium was discarded, and 0.5 mL of HBSS containing 2 mM EDTA was added. In addition, as a control, a sample to which HBBS containing no EDTA was added was also prepared under the same conditions. Each of the samples was placed on ice for 15 minutes, and then 4 kDa FITC-Dextran was added to each of the samples to a concentration of 2 mg/mL, and the samples were suspended and immediately observed with a confocal microscope.
# [2] = system: OTX2 gene; assay: OTX2 gene expression by qPCR during differentiation induction into inner ear stria vascularis marginal cells; format: cell-based, human; settings: Day 60; insulin-free medium (N21-Ins) versus B27+N2 medium and insulin-free medium with 1.5 μM insulin added from Day 20; FIG. 17
# Procedure: The differentiation from human iPS cells into inner ear progenitor cells was induced by the same method as in Test Example 1, the cells on the 12th day (Day 12) from the start of the differentiation induction were detached off with Accutase, an equal amount of PBS was added thereto, the cells were passed through a nylon mesh (pore size: 40 μm), and the number of cells was counted with a hemocytometer.
# The cells were suspended to a concentration of 5×10^5 cells/10 mL and seeded in a low adhesion 6-well plate (trade name “Corning Ultra-Low Attachment Plate”, Corning Inc.), and suspension culture was started under low oxygen conditions (4% of O2, 5% of CO2). […]
# In any of the above Conditions 1) to 3), the cells on the 48th day (Day 60) after the start of the suspension culture were collected, and the expression level of the OTX2 gene, which is known to be expressed on the Reissner's membrane, which is an inner ear organ, and known to be poorly expressed in the inner ear stria vascularis marginal cells, was quantified by qPCR in the same manner as in Test Example 1.
Molecule,barrier function between cells (transfer of FITC-Dextran to the inside of the cell mass) [1],expression level of OTX2 [2]
O=C(O)CN(CCN(CC(=O)O)CC(=O)O)CC(=O)O [EDTA],calcium-dependent barrier function was impaired,–
insulin,–,low in a case where the culture medium did not contain insulin as compared with a case where insulin was contained in the culture medium
